The values below are quoted from earlier work in patent US20140356423A1, “FORMULATIONS OF LYCOPENE IN COMBINATION WITH BISPHOSPHONATES BONE RESORPTION INHIBITORS” (priority 2013, published 2014).

The structures appear in SMILES notation. Read-outs that look alike come from different tables or passages of the source. Bounds are passed on as bounds.

Data set [1] concerns alkaline phosphatase activity.
Data set [2] has as its system osteoblast-like SaOS-2 cells.
The conditions of data set [3]: tablet not taken with enough water, or patient not upright for approximately one-half hour after taking.
The conditions of data set [4]: taken either concurrently with or 2 hours after breakfast.

As to `CC(C)=CCC/C(C)=C/C=C/C(C)=C/C=C/C(C)=C/C=C/C=C(C)/C=C/C=C(C)/C=C/C=C(\C)CCC=C(C)C` [lycopene], the alkaline phosphatase activity result is “stimulate alkaline phosphatase activity” in data set [1] (more mature cells grown in the presence of dexamethasone (SaOS+Dex cells)) and “inhibited or had no effect” in data set [1] (younger cells grown in the absence of dexamethasone (SaOS-Dex cells), depending on the time of addition). In addition, the “proliferation of osteoblast-like SaOS-2 cells” value in data set [2] is on record as “stimulated the proliferation”.

`NCCCC(O)(P(=O)(O)O)P(=O)(O)O` [alendronate, 4-amino-1-hydroxybutylidene-1,1-biphosphonic acid]: the side effects result in data set [3] was “esophageal irritation and erosion”. Further, the impairment of availability in data set [4] is more than 85%.
